Values quoted from earlier work as cited in patent US20250241354A1, “ORAL PRODUCTS” (RAI STRATEGIC HOLDINGS, INC., priority 2024, published 2025).

Conditions: in words

SMILES | solubility
COC(=O)/C=C/C(C)=C\C=C\C(C)=C\C=C\C=C(C)\C=C\C=C(C)\C=C\C(=O)O [bixin, (2E,4E,6E,8E,10E,12E,14E,16Z,18E)-20-methoxy-4,8,13,17-tetramethyl-20-oxoicosa-2,4,6,8,10,12,14,16,18-nonaenoic acid] | soluble in fats and alcohols but insoluble in water
CC(/C=C/C=C(C)/C=C/C(=O)O)=C\C=C\C=C(C)\C=C\C=C(C)\C=C\C(=O)O (stereo in doubt) [norbixin, (2E,4E,6E,8E,10E,12E,14E,16E,18E)-4,8,13,17-tetramethylicosa-2,4,6,8,10,12,14,16,18-nonaenedioic acid] | water-soluble
